According to US9060961B2, “Molecules and methods for treatment and detection of cancer” (UNIVERSITY OF WASHINGTON, priority 2006, dated 2015):

Test system: T lymphocytes in peripheral blood mononuclear cells
Experiment: IFN-gamma ELISPOT of human T cells with IGF1R peptides
Assay type: cell-based
Details: for Immunogenicity Cancer: responders / cancer patients tested; for Immunogenicity Volunteer: responders / volunteer donors tested
Method: A scoring system based on internet available epitope prediction algorithms was developed to predict the peptides derived from IGF1R that have optimal binding affinity and promiscuity against multiple MHC class II molecules. […] After stimulating human T cells with the peptides, IFN-gamma secretion was determined via ELISPOT analysis. Five of the most immunogenic peptides were selected for in vivo evaluation in neu-transgenic mice to assess the potential of clinical efficacy.

## IRGWKLFYNYALVIF [p 106-120]
  Immunogenicity Cancer: 3/10
  Immunogenicity Volunteer: 2/5

## GVLVLRASFDERQPY [p 1332-1346]
  Immunogenicity Cancer: 2/10

## LVIMLYVFHRKRNNS [p 951-965]
  Immunogenicity Cancer: 3/10

## GMAYLNANKFVHRDL [p 1122-1136]
  Immunogenicity Cancer: 1/10

## DYRSYRFPKLTVITE [p 69-83]
  Immunogenicity Volunteer: 1/5

## SHALVSLSFLKNLRL [p 393-407]
  Immunogenicity Cancer: 2/10
  Immunogenicity Volunteer: 2/5

## LIIALPVAVLLIVGG [p 936-950]
  Immunogenicity Cancer: 4/10
  Immunogenicity Volunteer: 1/5

## WSFGVVLWEIATLAE [p 1196-1210]
  Immunogenicity Cancer: 2/10
  Immunogenicity Volunteer: 1/5

## VIEGYLHILLISKAE [p 54-68]
  Immunogenicity Cancer: 2/10

## DERQPYAHMNGGRKN [p 1341-1355]
  Immunogenicity Cancer: 1/10

## IDIRNDYQQLKRLEN [p 37-5]
  Immunogenicity Cancer: 1/10

## TQYAVYVKAVTLTMV [p 575-589]
  Immunogenicity Cancer: 1/10
  Immunogenicity Volunteer: 1/5

## ASNFVFARTMPAEGA [p 817-831]
  Immunogenicity Cancer: 1/10

## YSFYVLDNQNLQQLW [p 418-432]
  Immunogenicity Cancer: 1/10

## SKMIQMAGEIADGMA [p 1110-1124]
  Immunogenicity Cancer: 1/10
